Source: PubChem BioAssay AID2060510 (Molecular Pharmacology Branch, DTP, NCI, 2025)
pIC50: −log10 of the molar value.

Test system: 439559-082-T-J2-PDC spheroids viability
Experiment: Anticancer human tumor 439559-082-T-J2-PDC patient-derived colon adenocarcinoma cell line growth inhibition [GQUAD]
Conditions: for pIC50: curve of first compound; for viability, T/C: stronger effect = lower value; active means viability on the fitted dose curve at most 10% of control; inactive means the rest
Text: DNA G-quadruplex Stabilizer Agents in Combinations in Complex Spheroids
A high-throughput screen of multi-cell type tumor spheroids was designed to identify active combinations of DNA G-quadruplex stabilizer agents and targeted small molecules. Complex spheroids include a stromal component modeled by human endothelial cells (HUVEC) and fibroblasts modeled by human mesenchymal stem cells (MSCs). The concentration ranges selected for each drug and investigational agent were based upon clinically achievable concentrations if the clinical Cmax of the agent was known.
Compounds. The drugs and investigational agents: pidnarulex (CX-5461; NSC782164), APTO-253 (NSC789042), BRACO-19 (NSC847499), peposertib (NSC802822), ceralasertib (NSC780249), elimusertib (NSC800525), camonsertib (NSC841442), AZD-1390 (NSC803789), olaparib (NSC753686), talazoparib (NSC767125), ART-558 (NSC835418), sotorasib (NSC818433), MRTX-1133 (NSC836407), SN-38 (NSC673596), topotecan (NSC609699), etoposide (NSC141540), doxorubicin (NSC123127), gemcitabine (NSC613327), 5-fluorouracil (NSC19893), paclitaxel (NSC125973), vemurafenib (NSC761431), panobinostat (NSC761190), R-306465 (JNJ-16241199; NSC773264), adavosertib (NSC754352), TP-3654 (NSC805149), carboplatin (NSC241240), KSQ-4279 (NSC840948), and staurosporine (NSC755774) were obtained from the National Cancer Institute (NCI) Developmental Therapeutics Program Chemical Repository (34). The FDA-approved anticancer drug set is available from the NCI Developmental Therapeutics Program. […] The stock solutions were prepared in dimethyl sulfoxide (DMSO, Sigma-Aldrich, St. Louis, MO, cat. D2650) at 800-fold the tested concentration and stored at -70 degrees C prior to their use. All drugs and investigational agents were tested over a range starting from a high concentration at or near the clinical Cmax and decreasing in half-log increments. If the clinical Cmax for an agent had not been determined, the highest concentration tested was 10 microM.
2.3 Cell Culture. All cells were maintained in an incubator at 37 degrees C and 5% CO2 with 95% humidity. The PDC lines were cultured according to standard operating procedures established by the NCI PDMR. All PDCs were thawed and cultured in Matrigel-coated flasks prepared with a working solution of 1X Ham's F-12 nutrient mix, without supplementation (Invitrogen, cat. 11765054), 100 U/mL penicillin-streptomycin (Invitrogen, cat. 15140122), and 2.5% Matrigel (Corning Inc., cat. 354248) for the first three passages. The 857933-349-R-J2-PDC line was cultured in 6C/Colon 1B media, which includes advanced DMEM/F-12 (Thermo Fisher Scientific, cat. 12634028), 10 mM HEPES (Thermo Fisher Scientific, cat. 15630080), 1X GlutaMAX supplement (Thermo Fisher Scientific, cat. 35050061), 0.1 mg/mL primocin (InvivoGen, cat. ant-pm-2), 10% defined fetal bovine serum, heat inactivated (HyClone Laboratories Inc., cat. SH30070.03HI), 50% L-WRN conditioned media (ATCC, cat. CRL-3276), 1.25 mM N-Acetyl-L-cysteine (Sigma-Aldrich, cat. A9165), 10 mM nicotinamide (Sigma-Aldrich, cat. N0636), 1X B-27 supplement (Thermo Fisher Scientific, cat. 17504044), 1X N-2 supplement (Thermo Fisher Scientific, cat. 17502048), 10 microM Y-27632 dihydrochloride (Tocris Bioscience, cat. 1254), and 50 ng/mL human EGF recombinant protein (Thermo Fisher Scientific, cat. PHG0311). The 485176-168-R4-J1-PDC line was cultured in Panc media, which includes all 6C/Colon 1B media components plus 100 ng/mL human FGF-10 (Thermo Fisher Scientific, cat. 100-26), 500 nM SB-431542 (Selleckchem, cat. S1067), and gastrin (Tocris, cat. 3006).
[…]

[1] = second compound 0.0316 µM, first compound 0.0316 µM
[2] = second compound 0.0316 µM, first compound 0.1 µM
[3] = second compound 0.0316 µM, first compound 0.316 µM
[4] = second compound 0.0316 µM, first compound 1 µM
[5] = second compound 0.0316 µM, first compound 3.16 µM
[6] = second compound 0.0316 µM, first compound 10 µM
[7] = second compound 0.1 µM, first compound 0.0316 µM
[8] = second compound 0.1 µM, first compound 0.1 µM
[9] = second compound 0.1 µM, first compound 0.316 µM
[10] = second compound 0.1 µM, first compound 1 µM
[11] = second compound 0.1 µM, first compound 3.16 µM
[12] = second compound 0.1 µM, first compound 10 µM
[13] = second compound 0.316 µM, first compound 0.0316 µM
[14] = second compound 0.316 µM, first compound 0.1 µM
[15] = second compound 0.316 µM, first compound 0.316 µM
[16] = second compound 0.316 µM, first compound 1 µM
[17] = second compound 0.316 µM, first compound 3.16 µM
[18] = second compound 0.316 µM, first compound 10 µM
[19] = second compound 1 µM, first compound 0.0316 µM
[20] = second compound 1 µM, first compound 0.1 µM
[21] = second compound 1 µM, first compound 0.316 µM
[22] = second compound 1 µM, first compound 1 µM
[23] = second compound 1 µM, first compound 3.16 µM
[24] = second compound 1 µM, first compound 10 µM
[25] = second compound 3.16 µM, first compound 0.0316 µM
[26] = second compound 3.16 µM, first compound 0.1 µM
[27] = second compound 3.16 µM, first compound 0.316 µM
[28] = second compound 3.16 µM, first compound 1 µM
[29] = second compound 3.16 µM, first compound 3.16 µM
[30] = second compound 3.16 µM, first compound 10 µM
[31] = second compound 10 µM, first compound 0.0316 µM
[32] = second compound 10 µM, first compound 0.1 µM
[33] = second compound 10 µM, first compound 0.316 µM
[34] = second compound 10 µM, first compound 1 µM
[35] = second compound 10 µM, first compound 3.16 µM
[36] = second compound 10 µM, first compound 10 µM
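Further: spheroids exposed to the agents for 7 days before readout.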
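Wherever viability, T/C is given: percent of luminescence signal in DMSO vehicle wells taken as 100% viability.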

O=C(NO)c1cnc(N2CCN(S(=O)(=O)c3ccc4ccccc4c3)CC2)nc1 + Cc1cnc(CNC(=O)c2c(=O)c3ccc(N4CCCN(C)CC4)nc3n3c2sc2ccccc23)cn1
6.45: pIC50 (second compound 1 µM)
6.35: pIC50 (second compound 0.1 µM) | pIC50 (second compound 0.316 µM)
6.42: pIC50 (second compound 3.16 µM)
6.26: pIC50 (second compound 0.0316 µM)
inactive: viability, T/C [1] 90.2% | viability, T/C [2] 88.9% | viability, T/C [3] 68.9% | viability, T/C [4] 29.1% | viability, T/C [7] 93.5% | viability, T/C [8] 85.8% | viability, T/C [9] 67.2% | viability, T/C [10] 10.9% | viability, T/C [13] 98.1% | viability, T/C [14] 83.4% | viability, T/C [15] 66.7% | viability, T/C [16] 15.7% | viability, T/C [19] 77.9% | viability, T/C [20] 73.2% | viability, T/C [21] 53.9% | viability, T/C [22] 15.3% | viability, T/C [25] 72% | viability, T/C [26] 64.5% | viability, T/C [27] 58.1% | viability, T/C [31] 62.7% | viability, T/C [32] 62.8% | viability, T/C [33] 47.6%
6.58: pIC50 (second compound 10 µM)
active: viability, T/C [5] 0.23% | viability, T/C [6] 0.25% | viability, T/C [11] 0.24% | viability, T/C [12] 0.21% | viability, T/C [17] 0.18% | viability, T/C [18] 0.24% | viability, T/C [23] 0.16% | viability, T/C [24] 0.14% | viability, T/C [28] 8.79% | viability, T/C [29] 0.12% | viability, T/C [30] 0.18% | viability, T/C [34] 0.23% | viability, T/C [35] 0.17% | viability, T/C [36] 0.18%

O=C(c1cc(Cc2n[nH]c(=O)c3ccccc23)ccc1F)N1CCN(C(=O)C2CC2)CC1 + CN(C)c1ccc(Nc2c3ccc(NC(=O)CCN4CCCC4)cc3nc3cc(NC(=O)CCN4CCCC4)ccc23)cc1
inactive: viability, T/C [1] 101% | viability, T/C [2] 92.1% | viability, T/C [3] 102% | viability, T/C [4] 99.6% | viability, T/C [5] 94.4% | viability, T/C [6] 95.5% | viability, T/C [7] 101% | viability, T/C [8] 96.6% | viability, T/C [9] 99.2% | viability, T/C [10] 97.9% | viability, T/C [11] 101% | viability, T/C [12] 87.3% | viability, T/C [13] 96.2% | viability, T/C [14] 104% | viability, T/C [15] 98.5% | viability, T/C [16] 96.2% | viability, T/C [17] 100% | viability, T/C [18] 90.8% | viability, T/C [19] 98.3% | viability, T/C [20] 95.1% | viability, T/C [21] 95.3% | viability, T/C [22] 97.6% | viability, T/C [23] 98.5% | viability, T/C [24] 107% | viability, T/C [25] 103% | viability, T/C [26] 99.7% | viability, T/C [27] 94.9% | viability, T/C [28] 101% | viability, T/C [29] 99.1% | viability, T/C [30] 99.7% | viability, T/C [31] 105% | viability, T/C [32] 96.8% | viability, T/C [33] 104% | viability, T/C [34] 93% | viability, T/C [35] 108% | viability, T/C [36] 94.9%
< 5.00: pIC50 (second compound 0.0316 µM) | pIC50 (second compound 0.1 µM) | pIC50 (second compound 0.316 µM) | pIC50 (second compound 1 µM) | pIC50 (second compound 3.16 µM) | pIC50 (second compound 10 µM)
